The text below walks through data of PubChem BioAssay (NCI).

The structures appear in SMILES notation. Values joined by “and” are separate entries in the source; they are usually repeats but may differ in a detail not shown here. Equal entries are not always repeated.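 Tested at 5 concentrations; 48 h exposure; 96-well plates; endpoints linearly interpolated, else capped at highest concentration. The concentration for 50% growth inhibition is given as GI50. TGI marks complete inhibition of growth.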

Test systems include M14 melanoma; K-562 leukemia; SR leukemia; RXF 393 renal; LOX IMVI melanoma; KM12 colon; CAKI-1 renal; UO-31 renal; HOP-92 NSCLC; SW-620 colon.
Assay in all cases: DTP human tumour cell line panel, 48 h

Take `CCCCCCCCCCCCCCCCSS(C)(=O)=O`: the TGI was 25.2 µM with M14 melanoma; 27.9 µM with K-562 leukemia; 21.1 µM in the experiment on SR leukemia; 10.9 µM with RXF 393 renal; 19.3 µM in the experiment on LOX IMVI melanoma; above 100 µM with KM12 colon. The TGI in the experiment with CAKI-1 renal amounted to 26.1 µM; in the experiment on UO-31 renal it was 35.7 µM; in the experiment on HOP-92 NSCLC, 37.9 µM; with SW-620 colon, 13.2 µM.

Consider `C=C(C)[C@@H]1CC[C@]2(C(=O)N3CCN(C)CC3)CC[C@]3(C)[C@H](CC[C@@H]4[C@@]5(C)C/C(=C/c6ccncc6)[C@H](O)C(C)(C)[C@@H]5CC[C@]43C)[C@@H]12`, for which the GI50 was 3.44 µM with M14 melanoma; 2.79 µM in the experiment with K-562 leukemia; 2.72 µM with SR leukemia; 2.89 µM in the experiment with RXF 393 renal; 4.01 µM in the experiment with LOX IMVI melanoma; 3.86 µM in the experiment on KM12 colon. Further, the GI50 with CAKI-1 renal was 5.82 µM; with UO-31 renal, 5.37 µM; with HOP-92 NSCLC it was 2.88 µM; with SW-620 colon it was 3.75 µM. Further, the TGI in the experiment with M14 melanoma was 12.6 µM; in the experiment on SR leukemia, 10.2 µM; with RXF 393 renal it was 10.5 µM; in the experiment on LOX IMVI melanoma it was 17.3 µM; in the experiment with KM12 colon it was 17.7 µM; in the experiment on CAKI-1 renal, 25.5 µM. For the same molecule, the total growth inhibition concentration (TGI) came to 21 µM in the experiment with UO-31 renal, 19.2 µM in the experiment with HOP-92 NSCLC and 17.7 µM in the experiment on SW-620 colon.

With `O=C(/C=C/c1ccc[nH]1)c1ccccc1`, the total growth inhibition concentration (TGI) in the experiment with M14 melanoma, with K-562 leukemia, in the experiment on SR leukemia, with RXF 393 renal, with LOX IMVI melanoma and in the experiment with KM12 colon was above 100 µM in each case. Moreover, the TGI in the experiment with CAKI-1 renal, in the experiment on UO-31 renal, in the experiment on HOP-92 NSCLC and in the experiment on SW-620 colon was above 100 µM throughout.

For `COc1ccc(-c2cc(=O)c3c(OC)c(O)c(OC)cc3o2)cc1`, the concentration for total growth inhibition (TGI) with M14 melanoma, in the experiment on K-562 leukemia, with SR leukemia, with RXF 393 renal, in the experiment on LOX IMVI melanoma and in the experiment on CAKI-1 renal was above 100 µM in each case. Besides, the TGI in the experiment on UO-31 renal was above 100 µM; in the experiment with HOP-92 NSCLC, 89.6 µM; in the experiment on SW-620 colon, above 100 µM.

On to `CS(=O)(=O)OCCCCOS(C)(=O)=O`, for which the GI50 was 765 µM with M14 melanoma; 795 µM in the experiment with K-562 leukemia; 100 µM with SR leukemia; 523 µM with RXF 393 renal; 5.96 µM with LOX IMVI melanoma; above 872 µM with KM12 colon. Moreover, the GI50 was 305 µM in the experiment on CAKI-1 renal, above 886 µM in the experiment with UO-31 renal, 570 µM in the experiment with HOP-92 NSCLC and above 1000 µM with SW-620 colon. Besides, the TGI in the experiment with M14 melanoma is 250 µM and > 1000 µM; with K-562 leukemia it was 223 µM and > 1000 µM; with SR leukemia, 223 µM and > 1000 µM; in the experiment on RXF 393 renal, 223 µM and > 1000 µM; in the experiment with LOX IMVI melanoma, 248 µM and > 1000 µM; with KM12 colon, above 1000 µM. The total growth inhibition concentration (TGI) in the experiment with CAKI-1 renal was 212 µM and 980 µM; in the experiment on UO-31 renal, 250 µM and > 1000 µM; with HOP-92 NSCLC, 250 µM and > 948 µM; with SW-620 colon, 250 µM and > 1000 µM.

Turning to `C/C(=N\NC(=O)c1cccc(S(=O)(=O)N2CCN(C)CC2)c1)c1cc(Cl)ccc1O`, the GI50 in the experiment on M14 melanoma was 1.06 µM; in the experiment on K-562 leukemia, 0.824 µM; in the experiment on SR leukemia, 0.383 µM; in the experiment with RXF 393 renal, 2.8 µM; in the experiment on LOX IMVI melanoma it was 0.518 µM; in the experiment on KM12 colon, 0.713 µM. Moreover, the GI50 in the experiment with CAKI-1 renal is 0.567 µM; in the experiment with UO-31 renal it was 0.184 µM; with HOP-92 NSCLC, 4.85 µM; with SW-620 colon, 0.705 µM. Besides, the TGI was 9.85 µM in the experiment on M14 melanoma; above 52.8 µM in the experiment on K-562 leukemia; above 52.9 µM with SR leukemia; 23.9 µM with RXF 393 renal; 13 µM in the experiment on LOX IMVI melanoma; above 66.8 µM in the experiment with KM12 colon. Also, the concentration for total growth inhibition (TGI) in the experiment on CAKI-1 renal was 27.5 µM; with UO-31 renal it was 12.6 µM; with HOP-92 NSCLC, above 90.1 µM; in the experiment on SW-620 colon, above 94.9 µM.

On to `OCCNC(=S)Nc1ccc(-c2nc(N3C[C@H]4CC[C@@H](C3)O4)c3cccn3n2)cc1`, for which the GI50 was 0.0654 µM in the experiment on M14 melanoma; 0.266 µM in the experiment with K-562 leukemia; 0.082 µM in the experiment on SR leukemia; below 0.0135 µM in the experiment with RXF 393 renal; 0.202 µM in the experiment on LOX IMVI melanoma; 0.0987 µM with KM12 colon. Besides, the concentration for 50% growth inhibition (GI50) with CAKI-1 renal is 0.132 µM; in the experiment on UO-31 renal it was below 0.0152 µM; in the experiment on HOP-92 NSCLC it was below 0.0133 µM; in the experiment on SW-620 colon, 0.203 µM. The TGI was 5.93 µM in the experiment with M14 melanoma; above 37.6 µM with K-562 leukemia; above 38 µM in the experiment with SR leukemia; 0.131 µM with RXF 393 renal; 7.65 µM in the experiment with LOX IMVI melanoma; 12.6 µM in the experiment with KM12 colon. Further, the total growth inhibition concentration (TGI) with CAKI-1 renal is above 37.8 µM; in the experiment with UO-31 renal, 0.194 µM; in the experiment with HOP-92 NSCLC it was 0.161 µM; in the experiment on SW-620 colon, 13.8 µM.

Take `S=P(C1CCCCC1)(C1CCCCC1)C(c1cccnc1)N1CCCC1` (stereo not given): the concentration for total growth inhibition (TGI) in the experiment with M14 melanoma worked out at 34.6 µM; in the experiment on K-562 leukemia, 39.2 µM; in the experiment on SR leukemia, 44.7 µM; in the experiment with RXF 393 renal, 33.4 µM; with LOX IMVI melanoma, 23.6 µM; with KM12 colon, 33.4 µM. Also, the TGI is 31.9 µM in the experiment on CAKI-1 renal, 42.7 µM in the experiment on HOP-92 NSCLC and above 100 µM in the experiment with SW-620 colon.

With `CN(Cc1ccccc1)c1ncnc2ccc(Br)cc12`, the GI50 in the experiment with M14 melanoma is 12.9 µM; with K-562 leukemia, 4.4 µM; in the experiment on SR leukemia it was 16.5 µM; in the experiment on RXF 393 renal, 13.7 µM; in the experiment on LOX IMVI melanoma, 14.7 µM; in the experiment on KM12 colon, 11.9 µM. For the same molecule, the GI50 in the experiment with CAKI-1 renal is 4.37 µM; with UO-31 renal, 13.3 µM; in the experiment with HOP-92 NSCLC, 7.16 µM. In addition, the TGI in the experiment on M14 melanoma was found to be 25.7 µM; with K-562 leukemia it was 18.6 µM; in the experiment on SR leukemia, 38 µM; with RXF 393 renal, 31 µM; in the experiment on LOX IMVI melanoma, 29.2 µM; in the experiment on KM12 colon it was 25.5 µM. In addition, the total growth inhibition concentration (TGI) is 17.6 µM in the experiment on CAKI-1 renal, 49.5 µM with UO-31 renal and 25.8 µM with HOP-92 NSCLC.

For `Cc1ccc(C(=O)Nc2ccc(CN3CCN(C)CC3)c(C(F)(F)F)c2)cc1C#Cc1cnc(N)c2ccc(C#N)cc12`, the concentration for 50% growth inhibition (GI50) in the experiment with M14 melanoma is 0.0234 µM; in the experiment with SR leukemia, 0.135 µM; in the experiment with RXF 393 renal, 0.0407 µM; in the experiment on LOX IMVI melanoma, 0.0419 µM; in the experiment on KM12 colon, 0.304 µM; with CAKI-1 renal, 0.0865 µM. Moreover, the GI50 in the experiment with UO-31 renal was 0.0224 µM; in the experiment with HOP-92 NSCLC, 0.0134 µM; in the experiment with SW-620 colon, 1.8 µM. Besides, the total growth inhibition concentration (TGI) with M14 melanoma amounted to 2.34 µM; in the experiment on RXF 393 renal, 5.82 µM; with LOX IMVI melanoma, 6.79 µM; with KM12 colon, 17.4 µM; in the experiment with CAKI-1 renal, 8.48 µM; in the experiment on UO-31 renal, 2.26 µM. Further, the TGI was 0.714 µM in the experiment with HOP-92 NSCLC and above 28.3 µM in the experiment with SW-620 colon.

Regarding `O=c1/c(=C/c2ccccc2O)sc2nc3ccccc3n12`, the concentration for total growth inhibition (TGI) is above 100 µM with M14 melanoma; 99.5 µM with K-562 leukemia; 61.3 µM in the experiment on SR leukemia; 57.9 µM in the experiment with RXF 393 renal; 98.3 µM in the experiment on LOX IMVI melanoma; above 100 µM with CAKI-1 renal. For the same molecule, the TGI with UO-31 renal, with HOP-92 NSCLC and in the experiment with SW-620 colon was above 100 µM in each case.

Consider `Clc1cc(Cl)cc(C2SCc3nc4ccccc4n32)c1` (stereo not given), for which the concentration for total growth inhibition (TGI) was 25.2 µM in the experiment with K-562 leukemia; above 100 µM in the experiment on SR leukemia; 28.2 µM in the experiment on RXF 393 renal; 37.3 µM with KM12 colon; 44.2 µM in the experiment with CAKI-1 renal; 43.5 µM in the experiment on UO-31 renal. Also, the figures for the TGI in the experiment on HOP-92 NSCLC and in the experiment with SW-620 colon were 47.2 µM and 33.6 µM, respectively.

`Oc1ccccc1/C=N/Nc1nc2ccccc2s1`: the GI50 was 6.48 µM in the experiment with K-562 leukemia; 7.71 µM in the experiment on SR leukemia; 13.7 µM in the experiment with RXF 393 renal; 4.3 µM with LOX IMVI melanoma; 3.1 µM with KM12 colon; 2.95 µM in the experiment with CAKI-1 renal. For the same molecule, the figures for the GI50 in the experiment on UO-31 renal, with HOP-92 NSCLC and in the experiment with SW-620 colon were 4.86 µM, 0.74 µM and 16.3 µM, respectively. The TGI was above 100 µM in the experiment with K-562 leukemia; above 100 µM in the experiment on SR leukemia; 39 µM in the experiment on RXF 393 renal; above 100 µM with LOX IMVI melanoma; above 100 µM in the experiment on KM12 colon; above 100 µM in the experiment on CAKI-1 renal. For the same molecule, the figures for the TGI with UO-31 renal, in the experiment with HOP-92 NSCLC and in the experiment with SW-620 colon were above 100 µM, 19.5 µM and above 100 µM, respectively.

Regarding `CN(C)c1ccc(/C=N/NC(=O)CSc2nc3sc4c(c3c(=O)n2-c2ccccc2)CCCCC4)cc1`, the GI50 was 8.26 µM with M14 melanoma; 3 µM with SR leukemia; 3.43 µM in the experiment with RXF 393 renal; 3.05 µM with LOX IMVI melanoma; above 100 µM in the experiment with KM12 colon; 5.07 µM in the experiment on CAKI-1 renal. The GI50 with UO-31 renal is above 100 µM; in the experiment with HOP-92 NSCLC it was 3.55 µM; in the experiment with SW-620 colon, 3.56 µM. The TGI with M14 melanoma is above 100 µM; in the experiment with SR leukemia it was above 100 µM; with RXF 393 renal, 15.2 µM; in the experiment on LOX IMVI melanoma, above 100 µM; with KM12 colon, above 100 µM; with CAKI-1 renal, above 100 µM. Besides, the values for the TGI in the experiment with UO-31 renal, with HOP-92 NSCLC and in the experiment on SW-620 colon were above 100 µM, 29 µM and above 100 µM, respectively.
